In patent publication US11560400B2, “Salts of diphosphate phosphoramidate of nucleosides as anticancer compounds” (NuCana plc, priority 2017, dated 2023):
Where a name gives a salt, the structure may show the parent alone.

Experiments:
[1] = tested on: HT29; test: CellTiterGlo cell viability assay, HT29; assay type: cell-based; conditions: Homo sapiens, HT-29, 72 h, HT29, 72 h; for EC50: Table 4 classes, read-out: Ab EC50; for inhibition at 198 µM: percentage inhibition at the highest concentration tested, read-out: Top Inhibit
Protocol: (§1) A subset of compounds of the invention were assayed for their cytotoxic activity in an array of different solid tumours and haematological malignancies using the following assay.
(§2) In vitro viability assay were performed to assess the effects of compounds on cell viability in selected cell lines over 72 h using the CellTiterGlo (CTG, Promega-G7573) assay. The tests were performed in duplicates with treatment of compounds at 9 points, 3.16 folds titration in 96 well plates over ˜72 h. The compound starting concentrations were 198 μM. Cell viability assay using CellTiterGlo in 96-well plate were performed. Compound treatment 72 h, standard growth conditions, duplicates. Compounds were dissolved to 40 mM with thawed […]. Compounds were serially diluted at 3.16 fold in thawed DMSO, and warmed to 37° C. before being dissolved in media (2 μL+200 μL). After compounds were dissolved in media, media containing compounds were warmed to 37° C. in incubator and then compounds in media were added to cell plates (50 μL+50 μL) in duplicates. The compounds' final concentrations were from 198 μM to 19.8 nM. All compound solubilities were checked and recorded again, then the plates were transferred to CO2 tissue culture incubator immediately and incubated for 3 days. DMSO final concentration is 0.5%. The parent nucleoside in each case was tested as a comparator, as was an exemplary ProTide. The drugs of the ProTide class that were tested were as follows:
(§3) The following cell lines were tested and are referred to in the Table 1 below:
(§4) In Tables 2, 3 and 4, ‘Ab EC50’ refers to the absolute EC50 and ‘Top inhibit’ refers to the percentage inhibition achieved at the highest concentration tested.

[2] = tested on: HepG2; test: CellTiterGlo cell viability assay, HepG2; assay type: cell-based; conditions: Homo sapiens, HepG2, 72 h; for EC50: Table 4 classes, read-out: Ab EC50; for inhibition at 198 µM: percentage inhibition at the highest concentration tested, read-out: Top Inhibit
Protocol: as §1, §2, §3, §4

[3] = tested on: OVCAR 3; test: CellTiterGlo cell viability assay, OVCAR 3; assay type: cell-based; conditions: Homo sapiens; for inhibition at 198 µM: OVCAR-3, 72 h, percentage inhibition at the highest concentration tested, read-out: Top Inhibit; for EC50: OVCAR 3, 72 h, Table 4 classes, read-out: Ab EC50
Protocol: as §1, §2, §3, §4

[4] = tested on: MCF-7; test: CellTiterGlo cell viability assay, MCF-7; assay type: cell-based; conditions: Homo sapiens, MCF7, 72 h, MCF-7, 72 h, percentage inhibition at the highest concentration tested; read-out: Top Inhibit
Protocol: as §1, §2, §3, §4

[5] = tested on: CCRF-CEM; test: CellTiterGlo cell viability assay, CCRF-CEM; assay type: cell-based; conditions: Homo sapiens, 72 h; for EC50: Table 4 classes, read-out: Ab EC50; for inhibition at 198 µM: percentage inhibition at the highest concentration tested, read-out: Top Inh
Protocol: as §1, §2, §3, §4

[6] = tested on: MOLT-4; test: CellTiterGlo cell viability assay, MOLT-4; assay type: cell-based; conditions: Homo sapiens, MOLT-4, 72 h; for inhibition at 198 µM: percentage inhibition at the highest concentration tested, read-out: Top Inh; for EC50: Table 4 classes, read-out: Ab EC50
Protocol: as §1, §2, §3, §4

[7] = tested on: K562; test: CellTiterGlo cell viability assay, K562; assay type: cell-based; conditions: Homo sapiens; for inhibition at 198 µM: K562, 72 h, percentage inhibition at the highest concentration tested, read-out: Top Inh; for EC50: K562, K 562, 72 h, Table 4 classes, read-out: Ab EC50
Protocol: as §1, §2, §3, §4

[8] = tested on: HL-60; test: CellTiterGlo cell viability assay, HL-60; assay type: cell-based; conditions: Homo sapiens, HL-60, 72 h; for EC50: Table 4 classes, read-out: Ab EC50; for inhibition at 198 µM: percentage inhibition at the highest concentration tested, read-out: Top Inh
Protocol: as §1, §2, §3, §4

[9] = tested on: RL; test: CellTiterGlo cell viability assay, RL; assay type: cell-based; conditions: Homo sapiens, 72 h; for EC50: Table 4 classes, read-out: Ab EC50; for inhibition at 198 µM: percentage inhibition at the highest concentration tested, read-out: Top Inh
Protocol: as §1, §2, §3, §4

[10] = tested on: RPMI-8226; test: CellTiterGlo cell viability assay, RPMI-8226; assay type: cell-based, Human; conditions: Homo sapiens, RPMI-8226, 72 h; for EC50: Table 4 classes, read-out: Ab EC50; for inhibition at 198 µM: percentage inhibition at the highest concentration tested, read-out: Top Inh
Protocol: as §1, §2, §3, §4

[11] = tested on: KG-1; test: CellTiterGlo cell viability assay, KG-1; assay type: cell-based; conditions: Homo sapiens, KG-1, 72 h; for EC50: Table 4 classes, read-out: Ab EC50; for inhibition at 198 µM: percentage inhibition at the highest concentration tested, read-out: Top Inhibit
Protocol: as §1, §2, §3, §4

| Compound | EC50 [1] | inhibition at 198 µM [1] | EC50 [2] | inhibition at 198 µM [2] | inhibition at 198 µM [3] | EC50 [3] | inhibition at 198 µM [4] | EC50 [5] | inhibition at 198 µM [5] | inhibition at 198 µM [6] | EC50 [6] | inhibition at 198 µM [7] | EC50 [7] | EC50 [8] | inhibition at 198 µM [8] | inhibition at 198 µM [9] | EC50 [10] | inhibition at 198 µM [10] | EC50 [11] | inhibition at 198 µM [11] | further results |
| --- | --- | --- | --- | --- | --- | --- | --- | --- | --- | --- | --- | --- | --- | --- | --- | --- | --- | --- | --- | --- | --- |
| C[C@H](NP(=O)(Oc1cccc2c1CCCC2)OP(=O)(O)OC[C@H]1O[C@@H](n2cnc3c(N)nc(Cl)nc32)[C@H](F)C1O)C(=O)OCc1ccccc1 (stereo partly drawn) [Example 19, 2-Chloro-9-(2′-Deoxy-2′-fluoro-β-D-arabinofuranosyl)adenine-5′-O-[1-5,6,7,8-tetrahydro-1-naphthyl(benzoxy-L-alaninyl)] Diphosphate Triethylammonium Salt] | 200 to 1000 nM | 68% | 200 to 1000 nM | 51% | 51% | > 10000 nM | 47% | < 200 nM | 99% | 90% | < 200 nM | 37% | > 10000 nM | < 200 nM | 95% | 57% | > 10000 nM | 79% | < 200 nM | 92% | EC50 [9]: 200 to 1000 nM |
| COC(=O)[C@H](CCSC)NP(=O)(Oc1ccccc1)OP(=O)(O)OC[C@H]1O[C@@H](n2cnc3c(N)nc(Cl)nc32)C(F)[C@H]1O (stereo partly drawn) [Example 24, 2-Chloro-9-(2′-Deoxy-2′-fluoro-β-D-arabinofuranosyl)adenine-5′-O-[l-phenyl(methoxy-L-metioninyl)] Diphosphate Triethylammonium Salt] | 200 to 1000 nM | 70% | 1000 to 5000 nM | 54% | 67% | > 10000 nM | 49% | < 200 nM | 99% | 88% | < 200 nM | 49% | > 10000 nM | < 200 nM | 95% | 39% | > 10000 nM | 86% | < 200 nM | 91% |  |
| C[C@H](NP(=O)(Oc1cccc2ccccc12)OP(=O)(O)OC[C@H]1O[C@@H](n2cnc3c(N)nc(Cl)nc32)[C@H](F)C1O)C(=O)OCC(C)(C)C (stereo partly drawn) [Example 13, 2-Chloro-9-(2′-Deoxy-2′-fluoro-β-D-arabinofuranosyl)adenine-5′-O-[1-naphthyl(neopentoxy-L-alaninyl)] Diphosphate Triethylammonium Salt] | 200 to 1000 nM | 68% |  | 49% | 80% | > 10000 nM | 49% | < 200 nM | 99% | 89% | < 200 nM | 44% | > 10000 nM | < 200 nM | 96% | 48% | > 10000 nM | 88% | < 200 nM | 93% |  |
| C[C@H](NP(=O)(Oc1ccccc1)OP(=O)(O)OC[C@H]1O[C@@H](n2cnc3c(N)nc(Cl)nc32)[C@H](F)C1O)C(=O)OCC(C)(C)C (stereo partly drawn) [Example 9, 2-Chloro-9-(2′-Deoxy-2′-fluoro-β-D-arabinofuranosyl)adenine-5′-O-[phenyl(neopentoxy-L-alaninyl)] Diphosphate Triethylammonium Salt] | 200 to 1000 nM | 70% | 200 to 1000 nM | 53% | 43% | > 10000 nM | 45% | < 200 nM | 99% | 92% | < 200 nM | 40% | > 10000 nM | < 200 nM | 96% | 53% | > 10000 nM | 81% | < 200 nM | 92% | EC50 [9]: 200 to 1000 nM |
